Test results reported in patent US20220323427A1, “SOMATOSTATIN RECEPTOR TYPE 5 AGONIST FOR THE TREATMENT OF HYPERINSULINISM” (Crinetics Pharmaceuticals, Inc., priority 2021, published 2022).

Legend:
[1] = Exposure in non-fasted male rats; settings: Sprague Dawley, rat, in vivo, oral, 10 mg/kg
major human CYP enzymes = assay: CYP inhibition or induction; assay type: in vitro ADME; settings: including CYP2C9 and CYP3A4
[2] = MAD study safety and tolerability; assay type: in vivo, human; settings: QD 30, 60 and 120 mg/day for 10 days
Method: MAD/Part 2: multiple ascending dose, randomized, placebo-controlled, double-blind; up to 5 cohorts, n=9/cohort; subjects in MAD will receive Compound 1 or the placebo. Subjects will undergo a mixed meal tolerance test (MMTT) and an SU challenge and euglycemic clamp procedure. The doses will not exceed the doses in the SAD. Doses will escalate from 30 mg to 120 mg.
To evaluate the safety and tolerability of single and multiple doses of Compound 1.

[3] = target: T1, human somatostatin receptor subtype 2 (Homo sapiens, UniProt P30874); assay: cAMP assay for SST2R; assay type: cell-based; settings: inhibition of cAMP, CHO-K1 cells expressing human SST2; read-out: SST2 potency (EC50; nM)
T1 construct: expressed in transfected cells
From the text: General overview: All five SSTR subtypes are Gi coupled G-protein coupled receptors (GPCRs) that lead to decreases in intracellular cyclic AMP (cAMP) when activated by an agonist. Therefore, measurement of intracellular cAMP levels can be used to assess whether compounds of the invention are agonists of SSTR subtypes (John Kelly, Troy Stevens, W. Joseph Thompson, and Roland Seifert, Current Protocols in Pharmacology, 2005, 2.2.1-2.2). One example of an intracellular cAMP assay is described below.
Four days prior to the assay, 5,000 Chinese hamster ovary cells (CHO-K1, ATCC #CCL-61) stably expressing the human somatostatin receptor subtype 2 are plated in each well of a 96-well tissue culture-treated plate in Ham's F12 growth media (ThermoFisher #10-080-CM) supplemented with 10% donor bovine serum (Gemini Bio-Products #100-506), 100 U/mL penicillin; 100 ug/mL streptomycin; 2 mM L-glutamine (Gemini Bio-Products #400-110) and 0.2 mg/mL hygromycin B (GoldBio #31282-04-9). The cells are cultured at 37° C., 5% CO2 and 95% humidity. […] The time-resolved fluorescent signal is read with a Tecan M1000Pro multiplate reader. The intracellular cAMP concentrations are calculated by regression to a standard curve and are plotted vs. the concentration of the compounds of the invention and the EC50 of the compounds are calculated using standard methods. […]

[4] = test system: glyburide-induced hyperinsulinemic hypoglycemia; assay: Glyburide-induced hyperinsulinemic hypoglycemia model in rats; assay type: in vivo, Sprague Dawley rats; settings: for Blood glucose levels reached over 5 hours: male rats, 2 h after glyburide, vehicle 94 mg/dL
Method: Sulfonylurea drugs, such as glyburide, inhibit KATP channels and can be used in rat preclinical models to mimic the disease state of congenital HI patients with KATP channel mutations.
This model of glyburide-induced hyperinsulinemic hypoglycemia was used to assess the pharmacodynamic effects of Compound 1 after a single administration in male and female adult rats and male neonatal rats.
Glyburide was administered to raise insulin levels and induce hypoglycemia in adult male Sprague Dawley rats.
Two hours following glyburide administration, Compound 1 was given by oral gavage and blood glucose was monitored over 5 hours.

[5] = test system: sulfonylurea-induced hyperinsulinism; assay: Sulfonylurea (glibenclamide) challenge and euglycemic clamp, SAD; assay type: in vivo, human; settings: single dose 30 mg or 60 mg
Method: SAD 1b/Part 1b: ascending single dose, randomized, placebo-controlled, double-blind; up to 3 cohorts, n=8/cohort; subjects in SAD 1b will undergo an SU challenge and euglycemic clamp procedure. Doses are 30 mg or 60 mg.
In SAD 1b and the MAD, subjects will undergo an SU challenge in the setting of a euglycemic clamp procedure. Sulfonylurea drugs act to close KATP channel of the pancreatic β-cell, stimulating endogenous insulin secretion. Given that the majority (50%) of patients with congenital HI harbor a mutation in the KATP channel, the SU challenge models this genetic form of HI in healthy volunteers. Intravenous glucose will be used during the euglycemic clamp to maintain glucose within a target range. […] The SU challenge cohorts in SAD 1b will assess the ability of a single dose of Compound 1 to reduce or prevent SU-induced glucose lowering as measured by reduced IV glucose infusion (reduced glucose “support”). IV glucose requirements will be assessed as a glucose infusion rate, or GIR (mg dextrose/kg body weight/minute). In the MAD, the durability of the Compound 1 effect will be measured by assessing the GIR required to maintain euglycemia during the SU challenge after 10 days of Compound 1 dosing compared to the baseline SU challenge in the absence (predose) of Compound 1. […]

T1 sequence (P30874 whole entry): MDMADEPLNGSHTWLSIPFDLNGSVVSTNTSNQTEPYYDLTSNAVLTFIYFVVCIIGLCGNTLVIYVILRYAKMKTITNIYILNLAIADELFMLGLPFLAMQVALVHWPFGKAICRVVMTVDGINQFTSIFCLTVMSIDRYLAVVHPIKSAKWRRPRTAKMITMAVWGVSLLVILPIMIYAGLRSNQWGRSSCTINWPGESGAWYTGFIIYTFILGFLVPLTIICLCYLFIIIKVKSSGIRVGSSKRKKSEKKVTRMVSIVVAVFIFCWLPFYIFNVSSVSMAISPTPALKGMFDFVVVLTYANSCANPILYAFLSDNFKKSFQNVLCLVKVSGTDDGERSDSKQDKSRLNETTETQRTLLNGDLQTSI

- AUC [1]: 590 ng·h/mL
- Cmax [1]: 45 ng/mL
- EC50 [3]: > 100 nM
Structure (SMILES): C[C@H](NC(=O)c1cnc(C#N)c(-c2cc(F)cc(F)c2)c1N1CC[C@H](N)C1)C(F)(F)F [Compound 1, 4-[(3S)-3-aminopyrrolidin-1-yl]-6-cyano-5-(3,5-difluorophenyl)-N-[(2S)-1,1,1-trifluoropropan-2-yl]pyridine-3-carboxamide]
- Potential for inhibition or induction of the major human CYP enzymes (major human CYP enzymes): little or no potential for inhibition or induction
- Safety and tolerability [2]: generally safe and well tolerated
- Blood glucose levels reached over 5 hours ([4]; 3 mg/kg oral): up to 111 mg/dL
- Blood glucose levels reached over 5 hours ([4]; 10 mg/kg oral): ≤ 134 mg/dL
- Blood glucose levels reached over 5 hours ([4]; 30 mg/kg oral): ≤ 203 mg/dL
- Blood glucose levels compared to vehicle ([4]; oral, 3-30 mg/kg): dose-dependently increased blood glucose levels
- Minimum effective dose (significant increase in blood glucose AUC over 5 hours) ([4]; oral, single dose): 10 mg/kg
- Effect on sulfonylurea-induced hyperinsulinism [5]: reversed sulfonylurea-induced hyperinsulinism
- Need for IV glucose support (glucose infusion rate) [5]: eliminating the need for IV glucose support
